Test results reported in publication PMC4149842 (ChemMedChem, 2014).
Read-outs that look alike come from different tables or passages of the source.

How the values were obtained:
[1] = target: T1, human equilibrative nucleoside transporter 1 (hENT1) (Homo sapiens, UniProt Q99808); assay: inhibition of initial rate of 3H-uridine; assay type: cell-based
T1 sequence (Q99808 2-456): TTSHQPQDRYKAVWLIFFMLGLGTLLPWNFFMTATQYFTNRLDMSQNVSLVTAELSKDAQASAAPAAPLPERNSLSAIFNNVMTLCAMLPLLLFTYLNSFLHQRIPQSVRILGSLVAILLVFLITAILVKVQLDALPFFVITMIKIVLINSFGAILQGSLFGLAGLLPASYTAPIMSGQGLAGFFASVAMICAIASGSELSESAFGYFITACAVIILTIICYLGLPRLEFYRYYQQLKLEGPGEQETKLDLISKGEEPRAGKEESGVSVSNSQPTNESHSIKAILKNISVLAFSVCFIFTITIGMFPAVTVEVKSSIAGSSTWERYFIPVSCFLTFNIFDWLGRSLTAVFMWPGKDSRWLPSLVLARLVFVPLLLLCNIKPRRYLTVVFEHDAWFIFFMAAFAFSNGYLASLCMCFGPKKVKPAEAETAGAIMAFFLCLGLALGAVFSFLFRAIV

[2] = target: T1, human equilibrative nucleoside transporter 1 (hENT1); assay: inhibition of initial rate of 3H-uridine; assay type: cell-based; remark: listed apart in the source

| Structure (SMILES) | IC50 [1] [nM] | IC50 [2] [nM] |
| --- | --- | --- |
| NC(=O)c1cn([C@@H]2O[C@H](CO)[C@@H](O)[C@H]2O)c2ncnc(NCc3ccc([N+](=O)[O-])cc3)c12 [2c, 5-Carboxamido-4-(4-nitrobenzylamino)-7-(β-D-ribofuranosyl)pyrrolo[2,3-d]pyrimidine] | 123 ± 31 | – |
| O=[N+]([O-])c1ccc(CNc2ncnc3c2ccn3[C@@H]2O[C@H](CO)[C@@H](O)[C@H]2O)cc1 [2b, 4-(4-Nitrobenzylamino)-7-(β-D-ribofuranosyl)pyrrolo[2,3-d]pyrimidine] | – | > 1000 |
